Experimental data reported in the NIST ThermoML archive (doi:10.1021/je700339f).

Assay: xn = mol fraction of the nth substance listed
Details: 298 K, Liquid

ClCCCCCl [1,4-dichlorobutane] + CC(=O)N(C)C
mass density [kg/m3]
Details	x2 = 0.0975	x2 = 0.2001	x2 = 0.2996	x2 = 0.4017	x2 = 0.5009	x2 = 0.5981	x2 = 0.6987	x2 = 0.801	x2 = 0.9012
100 kPa	1116.3	1097.8	1079.3	1060	1040.7	1021.7	1001.1	980	958.6
500 kPa	1116.6	1098.2	1079.6	1060.3	1041	1022	1001.3	980.3	958.8
1000 kPa	1117	1098.6	1080	1060.6	1041.4	1022.3	1001.7	980.6	959.2
1500 kPa	1117.4	1098.9	1080.3	1061	1041.7	1022.7	1002	980.8	959.5
2000 kPa	1117.7	1099.3	1080.7	1061.3	1042	1023	1002.3	981.2	959.8
2500 kPa	1118.1	1099.6	1081	1061.7	1042.4	1023.3	1002.8	981.6	960.1
3000 kPa	1118.5	1100.1	1081.4	1062.1	1042.7	1023.7	1003.1	982	960.4
3500 kPa	1118.9	1100.4	1081.8	1062.4	1043.1	1024	1003.4	982.2	960.7
4000 kPa	1119.3	1100.8	1082.1	1062.8	1043.4	1024.4	1003.7	982.6	961
4500 kPa	1119.6	1101.2	1082.5	1063.2	1043.7	1024.8	1004	982.9	961.3
5000 kPa	1120	1101.5	1082.8	1063.4	1044.1	1025	1004.4	983.2	961.6
5500 kPa	1120.4	1101.9	1083.2	1063.8	1044.5	1025.4	1004.7	983.4	961.9
6000 kPa	1120.7	1102.2	1083.6	1064.2	1044.9	1025.6	1005	983.8	962.2
6500 kPa	1121.1	1102.6	1083.9	1064.5	1045.2	1026	1005.3	984.1	962.6
7000 kPa	1121.5	1102.9	1084.3	1064.9	1045.5	1026.4	1005.7	984.4	962.9
7500 kPa	1121.9	1103.2	1084.6	1065.2	1045.8	1026.7	1006	984.8	963.1
8000 kPa	1122.2	1103.6	1085	1065.5	1046.2	1027	1006.3	985	963.5
8500 kPa	1122.5	1104	1085.4	1065.9	1046.6	1027.3	1006.6	985.4	963.7
9000 kPa	1123	1104.3	1085.7	1066.2	1046.9	1027.7	1007	985.6	964
9500 kPa	1123.2	1104.7	1086	1066.6	1047.2	1028	1007.3	986	964.3
10000 kPa	1123.7	1105.2	1086.4	1067	1047.6	1028.5	1007.6	986.3	964.7
10500 kPa	1124.1	1105.5	1086.8	1067.3	1047.9	1028.8	1008	986.7	965
11000 kPa	1124.4	1105.8	1087.2	1067.6	1048.2	1029.1	1008.3	986.9	965.2
11500 kPa	1124.7	1106.2	1087.5	1068	1048.6	1029.5	1008.6	987.3	965.6
11900 kPa	–	–	–	–	–	–	–	987.6	–
12000 kPa	1125.1	1106.6	1087.8	1068.3	1048.9	1029.8	1008.9	–	965.9
12500 kPa	1125.5	1106.8	1088.2	1068.7	1049.2	1030.1	1009.3	987.9	966.3
13000 kPa	1125.8	1107.2	1088.5	1069	1049.6	1030.4	1009.6	988.2	966.5
13400 kPa	–	–	–	1069.3	1049.9	–	–	–	–
13500 kPa	1126.1	1107.6	1088.9	–	–	1030.7	1009.9	988.5	966.8
14000 kPa	1126.5	1107.9	1089.1	1069.7	1050.3	1031	1010.2	988.8	967.1
14500 kPa	1126.8	1108.2	1089.5	1070	1050.6	1031.4	1010.5	989.1	967.4
15000 kPa	1127.2	1108.6	1089.9	1070.3	1050.9	1031.6	1010.8	989.4	967.7
15500 kPa	1127.6	1108.9	1090.2	1070.6	1051.2	1032	1011.1	989.7	968
16000 kPa	1127.9	1109.3	1090.5	1071	1051.5	1032.3	1011.4	990	968.2
16400 kPa	1128.2	–	–	–	1051.8	–	–	–	–
16500 kPa	–	1109.6	1090.9	1071.4	–	1032.6	1011.7	990.2	968.5
17000 kPa	1128.6	1109.9	1091.2	1071.6	1052.1	1032.9	1012	990.5	968.7
17500 kPa	1129	1110.3	1091.6	1072	1052.4	1033.2	1012.4	990.8	969.1
17900 kPa	–	–	–	–	1052.7	–	–	–	–
18000 kPa	1129.3	1110.6	1091.8	1072.3	–	1033.5	1012.7	991.1	969.3
18500 kPa	1129.6	1110.9	1092.2	1072.6	1053.1	1033.8	1013	991.4	969.6
19000 kPa	1130	1111.3	1092.5	1073	1053.5	1034.2	1013.3	991.8	969.9
19500 kPa	1130.3	1111.7	1092.8	1073.3	1053.8	1034.5	1013.6	992	970.1
20000 kPa	1130.8	1112	1093.3	1073.8	1054.1	1034.8	1014	992.4	970.5
